{"source": "patent US20260219274A1", "about": "“POLYOL SWEETNERS AND CARDIOVASCULAR AND THROMBOTIC EVENT RISK” (THE CLEVELAND CLINIC FOUNDATION, priority 2023, published 2026)", "key": {"[1]": {"test_system": "patients undergoing elective diagnostic coronary angiography (European cohort)", "experiment": "European validation cohort: LC/MS/MS serum erythritol vs 3-year MACE", "format": "in vivo, human", "excerpt": "In a third clinical study (the European Cohort, n=833), serum erythritol levels were quantified by stable isotope dilution LC/MS/MS in samples from sequential patients undergoing elective diagnostic coronary angiography due to (suspected) chronic coronary syndromes enrolled in the observational LipidCardio study between 2016-2018 at the Charité University Hospital, Campus Benjamin Franklin (registered under German Clinical Trial Register (drks.de); identifier: DRKS00020915) with a follow-up for 3 years^49. As a quaternary referral center, Charité University Hospital is centrally located in Europe, and subjects enrolled in the LipidCardio study have large geographic catchment, with residences throughout Europe. eGFR was calculated via CKD-MDRD equation^48. For the European validation cohort, there was a total of 833 samples available with MACE outcome data. All samples were used for the erythritol LC/MS/MS measurement.\nStable-isotope-dilution LC/MS/MS was used for quantification of erythritol, threitol, and 1,5-AHG in human and mouse plasma. Ice cold methanol (800 μL) and internal standards (D6-erythitol and ^13C6-1,5-AHG) were added to the plasma samples (20 μL), followed by vortexing and centrifuging (21,000×g; 4° C. for 15 min). The clear supernatant (800 μL) was transferred into a clean, labeled glass tubes (Borosilicate glass 12×75 mm) and dried in a speed vacuum concentrator (Speed vac plus, SC210, Thermo Sevant). The dry residue was reconstituted in acetic anhydride (100 μL) and 4-Dimethylaminopyridine (DMAP) in pyridine (100 μL; 1 mg/mL), sealed with safety caps, vortexed and heated (45 min at 80° C.) followed with drying under nitrogen. Dried residues were dissolved in HCl in water (0.1 M; 0.5 mL) and extracted with ethyl acetate (2 mL). Ethyl acetate layer was transferred into a clean glass tubes (Borosilicate glass 12×75 mm) and dried under nitrogen. The dry residue was reconstituted in ammonium formate in a mixture of methanol:water (100 μL; 50:50 v/v with 10 mM ammonium formate), tubes were vortexed and liquid was transferred to glass vials with micro-insets and caped. LC/MS/MS analysis was performed on a chromatographic system consisting of two Shimadzu LC-30 AD pumps (Nexera X2), a CTO 20AC oven operating at 30° C., and a SIL-30 AC-MP autosampler in tandem with a triple quadruple mass spectrometer (8050 series, Shimadzu Scientific Instruments, Inc., Columbia, MD, USA). For chromatographic separation, a Kinetex C18 column (50 mm×2.1 mm; […]) (Cat #00B-4462-AN, Phenomenex, Torrance, CA) was used. […] Electrospray ionization in the positive mode was used with multiple reaction monitoring (MRM) for detection of endogenous and stable isotope labeled internal standards. The following transitions were used: m/z 308.0 [M+4xC2OH2+NH4]^+→231.0 for threitol and erythritol, m/z 314.0 [M+4xC2OH2+NH4]^+→237.0 for D6-erythritol; m/z 360.1 [M+4xC2OH2+NH4]^+→273.3 for 1,5AHG; […] [M+4xC2OH2+NH4]^+→279.3 for ^13C6-1,5-AHG; The following ion source parameters were applied: nebulizing gas flow, 3 l/min; heating gas flow, 10 L/min; interface temperature, 300° C.; desolvation line temperature, 250° C.; heat block temperature, 400° C.; and drying gas flow, 10 L/min. Limit of detection (LOD) and limit of quantification (LOQ) were as follow: threitol:0.048 and 0.160 μM; erythritol: 0.026 and 0.089 μM; 1,5-AHG: […]; respectively. Three quality control samples were run with each batch of samples and inter-batch variations expressed as coefficient of variation (CV) were less than 7% for all analytes monitored. Data were collected and analyzed by LabSolution 5.91 software (Shimadzu).\nContinuous variables were summarized as median (25th and 75th percentiles), and categorical variables are presented as %. For group comparisons of patient characteristics, Kruskal-Wallis test was performed for numerical data and Chi-Square test for categorical data. […]"}, "dogs": {"test_system": "dogs", "details": "dog, in vivo; cited from earlier work"}}}
{"smiles": "OC[C@@H](O)[C@@H](O)CO", "note": "[erythritol]", "values": [{"measurement": "HR with 95% CI", "setting": "[1]; 3-year MACE per μM of erythritol, adjusted Cox model", "value": "1.16 (1.05-1.30)"}, {"measurement": "Adjusted HR, 3-year MACE", "setting": "[1]; erythritol Q2 vs Q1, female", "value": 1.82}, {"measurement": "Unadjusted HR, 3-year MACE", "setting": "[1]; erythritol Q2 vs Q1, female", "value": 1.64}, {"measurement": "Adjusted HR, 3-year MACE", "setting": "[1]; erythritol Q2 vs Q1, male", "value": 0.98}, {"measurement": "Unadjusted HR, 3-year MACE", "setting": "[1]; erythritol Q2 vs Q1, male", "value": 1.22}, {"measurement": "Adjusted HR, 3-year MACE", "setting": "[1]; erythritol Q3 vs Q1, female", "value": 1.66}, {"measurement": "Unadjusted HR, 3-year MACE", "setting": "[1]; erythritol Q3 vs Q1, female", "value": 1.67}, {"measurement": "Adjusted HR, 3-year MACE", "setting": "[1]; erythritol Q3 vs Q1, male", "value": 0.93}, {"measurement": "Unadjusted HR, 3-year MACE", "setting": "[1]; erythritol Q3 vs Q1, male", "value": 2.09}, {"measurement": "Adjusted HR, 3-year MACE", "setting": "[1]; erythritol Q4 vs Q1, female", "value": "2.27 (0.75-6.82)"}, {"measurement": "Unadjusted HR, 3-year MACE", "setting": "[1]; erythritol Q4 vs Q1, female", "value": "3.77 (1.61-8.80)"}, {"measurement": "Adjusted HR, 3-year MACE", "setting": "[1]; erythritol Q4 vs Q1, male", "value": 2.37}, {"measurement": "Unadjusted HR, 3-year MACE", "setting": "[1]; erythritol Q4 vs Q1, male", "value": 4.92}, {"measurement": "increase in the adjusted HR for MACE", "setting": "[1]; per 1 μM increase in erythritol levels", "value": 16, "unit": "%"}, {"measurement": "Q4 vs. Q1 HR (95% CI), 3-year MACE", "setting": "[1]; subgroup Age <70", "value": "3.08 (1.22-7.78)"}, {"measurement": "Q4 vs. Q1 HR (95% CI), 3-year MACE", "setting": "[1]; subgroup Age ≥70", "value": "3.49 (2.12-5.73)"}, {"measurement": "Q4 vs. Q1 HR (95% CI), 3-year MACE", "setting": "[1]; subgroup CAD", "value": "4.22 (2.58-6.89)"}, {"measurement": "Q4 vs. Q1 HR (95% CI), 3-year MACE", "setting": "[1]; subgroup Diabetes", "value": "5.16 (2.4-11.1)"}, {"measurement": "Q4 vs. Q1 HR (95% CI), 3-year MACE", "setting": "[1]; subgroup Female", "value": "3.77 (1.61-8.80)"}, {"measurement": "Q4 vs. Q1 HR (95% CI), 3-year MACE", "setting": "[1]; subgroup GFR <60 ml/min/1.73 m^3", "value": "5.25 (2.82-9.76)"}, {"measurement": "Q4 vs. Q1 HR (95% CI), 3-year MACE", "setting": "[1]; subgroup GFR ≥60 ml/min/1.73 m^3", "value": "2.38 (1.32-4.31)"}, {"measurement": "Q4 vs. Q1 HR (95% CI), 3-year MACE", "setting": "[1]; subgroup HDL-c <40 mg/dL", "value": "4.15 (1.91-8.99)"}, {"measurement": "Q4 vs. Q1 HR (95% CI), 3-year MACE", "setting": "[1]; subgroup HDL-c ≥40 mg/dL", "value": "4.28 (2.4-7.62)"}, {"measurement": "Q4 vs. Q1 HR (95% CI), 3-year MACE", "setting": "[1]; subgroup HbA1C <5.7%", "value": "2.13 (1.06-4.25)"}, {"measurement": "Q4 vs. Q1 HR (95% CI), 3-year MACE", "setting": "[1]; subgroup HbA1C ≥5.7%", "value": "5.39 (2.96-9.81)"}, {"measurement": "Q4 vs. Q1 HR (95% CI), 3-year MACE", "setting": "[1]; subgroup Hypertension", "value": "6.08 (1.31-28.1)"}, {"measurement": "Q4 vs. Q1 HR (95% CI), 3-year MACE", "setting": "[1]; subgroup LDL-c <100 mg/dL", "value": "3.92 (2.25-6.83)"}, {"measurement": "Q4 vs. Q1 HR (95% CI), 3-year MACE", "setting": "[1]; subgroup LDL-c ≥100 mg/dL", "value": "4.27 (1.94-9.37)"}, {"measurement": "Q4 vs. Q1 HR (95% CI), 3-year MACE", "setting": "[1]; subgroup Male", "value": "4.92 (2.89-8.35)"}, {"measurement": "Q4 vs. Q1 HR (95% CI), 3-year MACE", "setting": "[1]; subgroup No CAD", "value": "5.97 (1.75-20.4)"}, {"measurement": "Q4 vs. Q1 HR (95% CI), 3-year MACE", "setting": "[1]; subgroup No Diabetes", "value": "2.96 (1.72-5.10)"}, {"measurement": "Q4 vs. Q1 HR (95% CI), 3-year MACE", "setting": "[1]; subgroup No Hypertension", "value": "4.97 (3.05-8.09)"}, {"measurement": "Q4 vs. Q1 HR (95% CI), 3-year MACE", "setting": "[1]; subgroup No Prior MI", "value": "3.48 (1.77-6.87)"}, {"measurement": "Q4 vs. Q1 HR (95% CI), 3-year MACE", "setting": "[1]; subgroup Prior MI", "value": "4.69 (2.54-8.66)"}, {"measurement": "Q4 vs. Q1 HR (95% CI), 3-year MACE", "setting": "[1]; subgroup Triglycerides <150", "value": "3.71 (1.93-7.14)"}, {"measurement": "Q4 vs. Q1 HR (95% CI), 3-year MACE", "setting": "[1]; subgroup Triglycerides ≥150", "value": "3.85 (1.50-9.87)"}]}
{"smiles": "OC[C@@H](O)[C@H](O)[C@@H](O)CO", "note": "[xylitol]", "values": [{"measurement": "toxicity to dogs", "setting": "dogs", "value": "highly toxic"}]}
